From ChEMBL document CHEMBL4020842, “Discovery of N1-(4-((7-Cyclopentyl-6-(dimethylcarbamoyl)-7 H-pyrrolo[2,3- d]pyrimidin-2-yl)amino)phenyl)- N8-hydroxyoctanediamide as a Novel Inhibitor Targeting Cyclin-dependent Kinase 4/9 (CDK4/9) and Histone Deacetlyase1 (HDAC1) against Malignant Cancer” (J Med Chem, 2018) come the findings set out here.

Assay [1] addresses T1, Histone deacetylase 1 (Homo sapiens, UniProt Q13547). As to the kind of experiment: Inhibition of HDAC1 (unknown origin).
The target of assay [2] is T1, Histone deacetylase 1. The assay can be described thus: Potency index, ratio of vorinostat IC50 to compound IC50 for HDAC1 (unknown origin).
A further assay has as its target CDK4/Cyclin D3 (Homo sapiens, UniProt P11802). The assay can be described thus: Inhibition of recombinant human full length N-terminal GST-tagged CDK4/Cyclin-D3 co-expressed in baculovirus infected sf21 cells using Rb substrate in presence of [gamma33P]ATP after 10 mins by scintillation counting method.

The structures appear in SMILES notation. Some results are limits rather than exact numbers.

Sequence of CDK4/Cyclin D3 (P11802 whole entry): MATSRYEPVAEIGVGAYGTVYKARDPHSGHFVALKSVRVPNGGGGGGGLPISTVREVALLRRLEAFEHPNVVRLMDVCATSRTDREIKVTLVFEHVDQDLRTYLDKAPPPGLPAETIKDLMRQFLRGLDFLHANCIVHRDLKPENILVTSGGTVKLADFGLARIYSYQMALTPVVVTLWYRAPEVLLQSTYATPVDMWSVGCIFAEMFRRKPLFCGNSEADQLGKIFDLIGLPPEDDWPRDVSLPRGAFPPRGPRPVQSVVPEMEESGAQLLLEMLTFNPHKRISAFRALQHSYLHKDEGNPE
Sequence of CDK4/Cyclin D3 (P30281 whole entry, further chain): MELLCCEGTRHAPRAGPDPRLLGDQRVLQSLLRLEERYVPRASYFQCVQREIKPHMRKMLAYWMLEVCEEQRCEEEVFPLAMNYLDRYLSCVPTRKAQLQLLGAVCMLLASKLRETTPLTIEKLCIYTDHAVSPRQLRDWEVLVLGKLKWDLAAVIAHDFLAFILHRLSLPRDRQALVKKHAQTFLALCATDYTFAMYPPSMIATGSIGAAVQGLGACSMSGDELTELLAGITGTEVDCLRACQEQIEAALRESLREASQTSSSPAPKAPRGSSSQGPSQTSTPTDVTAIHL
T1 sequence (Q13547 whole entry): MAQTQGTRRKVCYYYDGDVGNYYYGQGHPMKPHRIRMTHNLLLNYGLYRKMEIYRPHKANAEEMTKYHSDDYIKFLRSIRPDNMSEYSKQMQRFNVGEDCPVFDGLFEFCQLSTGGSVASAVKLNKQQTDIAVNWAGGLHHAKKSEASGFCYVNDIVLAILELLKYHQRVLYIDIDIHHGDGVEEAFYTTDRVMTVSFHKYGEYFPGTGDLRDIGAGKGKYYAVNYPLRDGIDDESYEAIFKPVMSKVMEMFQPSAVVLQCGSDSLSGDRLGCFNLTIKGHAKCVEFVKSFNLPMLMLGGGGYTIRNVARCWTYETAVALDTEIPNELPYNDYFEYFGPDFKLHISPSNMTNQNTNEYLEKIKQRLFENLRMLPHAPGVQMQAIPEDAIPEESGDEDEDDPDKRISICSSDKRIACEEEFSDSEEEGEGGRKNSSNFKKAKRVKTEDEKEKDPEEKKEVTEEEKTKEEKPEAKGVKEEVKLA

With `CN(C)C(=O)c1cc2cnc(Nc3ccc(CNC(=O)CCCCCCC(=O)NO)cc3)nc2n1C1CCCC1`, the figures for the half-inhibitory concentration (IC50) on Histone deacetylase 1 [1] and on CDK4/Cyclin D3 were 53 nM and 10 nM, respectively. For the same compound, on Histone deacetylase 1 [2], the Ratio IC50 fell in the range of 10 to 100.

Consider `COC(=O)CCCCCCC(=O)Nc1ncc2cc(C(=O)N(C)C)n(C3CCCC3)c2n1`, for which the 50% inhibitory concentration (IC50) on CDK4/Cyclin D3 was more than 5000 nM.

For `COC(=O)CCCCCCCC(=O)Nc1ccc(Nc2ncc3cc(C(=O)N(C)C)n(C4CCCC4)c3n2)cc1`, the concentration for half-maximal inhibition (IC50) at CDK4/Cyclin D3 was 24 nM.

As for `COC(=O)CCCCCCC(=O)Nc1ccccc1Nc1ncc2cc(C(=O)N(C)C)n(C3CCCC3)c2n1`, the half-maximal inhibitory concentration (IC50) at CDK4/Cyclin D3 is more than 5000 nM.

`CN(C)C(=O)c1cc2cnc(Nc3cccc(NC(=O)CCCCCCC(=O)NO)c3)nc2n1C1CCCC1`: the figures for the concentration for half-maximal inhibition (IC50) against Histone deacetylase 1 [1] and on CDK4/Cyclin D3 were 0.84 nM and 30 nM, respectively. Also, the Ratio IC50 on Histone deacetylase 1 [2] lay in the range of 10 to 100.

In the case of `COC(=O)CCCCCCC(=O)NCc1ccc(Nc2ncc3cc(C(=O)N(C)C)n(C4CCCC4)c3n2)cc1`, the IC50 on CDK4/Cyclin D3 is 25 nM.

Regarding `CN(C)C(=O)c1cc2cnc(Nc3ccc(C(=O)NCCCCCC(=O)NO)cc3)nc2n1C1CCCC1`, the 50% inhibitory concentration (IC50) on Histone deacetylase 1 [1] came to 0.53 nM; at CDK4/Cyclin D3 it was 9.6 nM. Besides, the Ratio IC50 on Histone deacetylase 1 [2] was in the range of 10 to 100.

Consider `COC(=O)CCCCCNC(=O)Nc1ccc(Nc2ncc3cc(C(=O)N(C)C)n(C4CCCC4)c3n2)cc1`, for which, at CDK4/Cyclin D3, the half-maximal inhibitory concentration (IC50) came out at 23 nM.

Consider `COC(=O)CCCCCCC(=O)N1CCN(c2ccc(Nc3ncc4cc(C(=O)N(C)C)n(C5CCCC5)c4n3)nc2)CC1`, for which the IC50 against Histone deacetylase 1 [1] is more than 5000 nM; at CDK4/Cyclin D3, 13 nM. The Ratio IC50 on Histone deacetylase 1 [2] was in the range of 10 to 100.

In the case of `COC(=O)CCCCCCC(=O)Nc1ccc(Nc2ncc3nnn(C4CCCC4)c3n2)cc1`, the values for the IC50 against Histone deacetylase 1 [1] and on CDK4/Cyclin D3 were more than 5000 nM and 857 nM, respectively. The Ratio IC50 on Histone deacetylase 1 [2] fell in the range of 10 to 100.

Turning to `COC(=O)CCCCCCCNC(=O)c1ccc(Nc2ncc3cc(C(=O)N(C)C)n(C4CCCC4)c3n2)cc1`, the concentration for half-maximal inhibition (IC50) on CDK4/Cyclin D3 was found to be 8.2 nM.

Consider `COC(=O)CCCCCCC(=O)Nc1cccc(Nc2ncc3cc(C(=O)N(C)C)n(C4CCCC4)c3n2)c1`, for which the IC50 on CDK4/Cyclin D3 came to 26 nM.

`CN(C)C(=O)c1cc2cnc(Nc3ccc(C(=O)NCCCCC(=O)NO)cc3)nc2n1C1CCCC1`: at CDK4/Cyclin D3, the concentration for half-maximal inhibition (IC50) came to 11 nM.

In the case of `CN(C)C(=O)c1cc2cnc(Nc3ccc(NC(=O)CCCCCCC(=O)O)cc3)nc2n1C1CCCC1`, the half-maximal inhibitory concentration (IC50) against Histone deacetylase 1 [1] is more than 5000 nM; at CDK4/Cyclin D3, 18 nM. Besides, the Ratio IC50 at Histone deacetylase 1 [2] was in the range of 10 to 100.

On to `CN(C)C(=O)c1cc2cnc(Nc3ccc(C(=O)NCCCCCCCC(=O)NO)cc3)nc2n1C1CCCC1`, for which the IC50 stood at 1.6 nM at Histone deacetylase 1 [1] and 26 nM at CDK4/Cyclin D3. The Ratio IC50 at Histone deacetylase 1 [2] was 10 to 100.

Take `COC(=O)CCCCCC(=O)Nc1ccc(Nc2ncc3cc(C(=O)N(C)C)n(C4CCCC4)c3n2)cc1`: the 50% inhibitory concentration (IC50) on CDK4/Cyclin D3 was determined as 10 nM.

As for `CN(C)C(=O)c1cc2cnc(Nc3ccccc3NC(=O)CCCCCCC(=O)NO)nc2n1C1CCCC1`, the half-maximal inhibitory concentration (IC50) on Histone deacetylase 1 [1] was 37 nM; at CDK4/Cyclin D3, more than 5000 nM. Besides, the Ratio IC50 at Histone deacetylase 1 [2] is 10 to 100.

`CN(C)C(=O)CCCCCCC(=O)Nc1ccc(Nc2ncc3cc(C(=O)N(C)C)n(C4CCCC4)c3n2)cc1`: the half-inhibitory concentration (IC50) against Histone deacetylase 1 [1] is more than 5000 nM; on CDK4/Cyclin D3, 16 nM. Further, the Ratio IC50 on Histone deacetylase 1 [2] is 10 to 100.

Consider `COC(=O)CCCCCCC(=O)Nc1ccc(Nc2ncc3cc(C(=O)N(C)C)n(C4CCCC4)c3n2)cn1`, for which the IC50 at CDK4/Cyclin D3 turned out to be 16 nM.

Regarding `CN(C)C(=O)c1cc2cnc(Nc3ccc(N4CCN(C(=O)CCCCCCC(=O)NO)CC4)cn3)nc2n1C1CCCC1`, the values for the 50% inhibitory concentration (IC50) on Histone deacetylase 1 [1] and on CDK4/Cyclin D3 were 39 nM and 13 nM, respectively. For the same compound, on Histone deacetylase 1 [2], the Ratio IC50 was in the range of 10 to 100.

For `CCCCCCCCC(=O)Nc1ccc(Nc2ncc3cc(C(=O)N(C)C)n(C4CCCC4)c3n2)cc1`, the half-maximal inhibitory concentration (IC50) on CDK4/Cyclin D3 worked out at 123 nM.

As to `CN(C)C(=O)c1cc2cnc(Nc3ccc(NC(=O)CCCCCCC(=O)NO)cn3)nc2n1C1CCCC1`, the concentration for half-maximal inhibition (IC50) on Histone deacetylase 1 [1] was determined as 423 nM; on CDK4/Cyclin D3, 93 nM. In addition, the Ratio IC50 on Histone deacetylase 1 [2] was 10 to 100.

Turning to `COC(=O)CCCCCCNC(=O)c1ccc(Nc2ncc3cc(C(=O)N(C)C)n(C4CCCC4)c3n2)cc1`, on CDK4/Cyclin D3, the IC50 was found to be 11 nM.

Regarding `O=C(CCCCCCC(=O)Nc1ccc(Nc2ncc3nnn(C4CCCC4)c3n2)cc1)NO`, the IC50 against Histone deacetylase 1 [1] turned out to be 433 nM; at CDK4/Cyclin D3, 1140 nM. At Histone deacetylase 1 [2], the Ratio IC50 was 10 to 100.

With `COC(=O)CCCCCCC(=O)NNc1ncc2cc(C(=O)N(C)C)n(C3CCCC3)c2n1`, the IC50 at CDK4/Cyclin D3 is more than 5000 nM.

Take `CCCCCCCC(=O)Nc1ccc(Nc2ncc3cc(C(=O)N(C)C)n(C4CCCC4)c3n2)cc1`: on CDK4/Cyclin D3, the half-inhibitory concentration (IC50) worked out at 29 nM.

Take `CN(C)C(=O)c1cc2cnc(Nc3ccc(NC(=O)CCCCC(=O)NO)cc3)nc2n1C1CCCC1`: the IC50 at Histone deacetylase 1 [1] is 27 nM; on CDK4/Cyclin D3, 11 nM. The Ratio IC50 on Histone deacetylase 1 [2] was in the range of 10 to 100.

Regarding `COC(=O)CCCCCCC(=O)Nc1ccc(Nc2ncc3cc(C(=O)N(C)C)n(C4CCCC4)c3n2)nc1`, the values for the IC50 against Histone deacetylase 1 [1] and at CDK4/Cyclin D3 were more than 5000 nM and 47 nM, respectively. Besides, the Ratio IC50 at Histone deacetylase 1 [2] was 10 to 100.

Regarding `COC(=O)CCCCNC(=O)c1ccc(Nc2ncc3cc(C(=O)N(C)C)n(C4CCCC4)c3n2)cc1`, the IC50 at CDK4/Cyclin D3 is 6.3 nM.

Regarding `CN(C)C(=O)c1cc2cnc(Nc3ccc(NC(=O)CCCCCCCO)cc3)nc2n1C1CCCC1`, the IC50 against Histone deacetylase 1 [1] was more than 5000 nM; on CDK4/Cyclin D3 it was 10 nM. Also, at Histone deacetylase 1 [2], the Ratio IC50 was in the range of 10 to 100.

As for `COC(=O)CCCCC(=O)Nc1ccc(Nc2ncc3cc(C(=O)N(C)C)n(C4CCCC4)c3n2)cc1`, the IC50 on CDK4/Cyclin D3 came to 4.8 nM.

Take `CN(C)C(=O)c1cc2cnc(Nc3ccc(NC(=O)CCCCCC(=O)NO)cc3)nc2n1C1CCCC1`: the IC50 on Histone deacetylase 1 [1] stood at 0.84 nM; at CDK4/Cyclin D3, 10 nM. The Ratio IC50 at Histone deacetylase 1 [2] is 10 to 100.

For the compound `CN(C)C(=O)c1cc2cnc(Nc3ccc(C(=O)NCCCCCCC(=O)NO)cc3)nc2n1C1CCCC1`, the figures for the 50% inhibitory concentration (IC50) against Histone deacetylase 1 [1] and on CDK4/Cyclin D3 were 1.4 nM and 12 nM, respectively. For the same compound, the Ratio IC50 at Histone deacetylase 1 [2] was in the range of 10 to 100.

`COC(=O)CCCCCNC(=O)c1ccc(Nc2ncc3cc(C(=O)N(C)C)n(C4CCCC4)c3n2)cc1`: the IC50 at CDK4/Cyclin D3 came to 7.3 nM.

Regarding `CCCCCC(=O)Nc1ccc(Nc2ncc3cc(C(=O)N(C)C)n(C4CCCC4)c3n2)cc1`, the concentration for half-maximal inhibition (IC50) against Histone deacetylase 1 [1] was more than 5000 nM; on CDK4/Cyclin D3 it was 10 nM. Besides, the Ratio IC50 on Histone deacetylase 1 [2] was in the range of 10 to 100.

As for `COC(=O)CCCCCCC(=O)Nc1ccc(Nc2ncc3ncn(C4CCCC4)c3n2)cc1`, the half-inhibitory concentration (IC50) on Histone deacetylase 1 [1] and at CDK4/Cyclin D3 was more than 5000 nM throughout. The Ratio IC50 at Histone deacetylase 1 [2] was 10 to 100.

On to `CCCCCCC(=O)Nc1ccc(Nc2ncc3cc(C(=O)N(C)C)n(C4CCCC4)c3n2)cc1`, for which the IC50 at CDK4/Cyclin D3 came to 27 nM.

Turning to `COC(=O)CCCCCCC(=O)Nc1ccc(Nc2ncc3cc(C(=O)N(C)C)n(C4CCCC4)c3n2)cc1`, the concentration for half-maximal inhibition (IC50) at Histone deacetylase 1 [1] is more than 5000 nM; at CDK4/Cyclin D3, 12 nM. In addition, on Histone deacetylase 1 [2], the Ratio IC50 was 10 to 100.

As for `CN(C)C(=O)c1cc2cnc(Nc3ccc(NC(=O)NCCCCCC(=O)NO)cc3)nc2n1C1CCCC1`, the IC50 against Histone deacetylase 1 [1] came to 1.6 nM; on CDK4/Cyclin D3, 8.4 nM. In addition, the Ratio IC50 on Histone deacetylase 1 [2] lay in the range of 10 to 100.

`CN(C)C(=O)c1cc2cnc(Nc3ccc(NC(=O)CCCCCCCC(=O)NO)cc3)nc2n1C1CCCC1`: the half-maximal inhibitory concentration (IC50) at Histone deacetylase 1 [1] was found to be 3 nM; on CDK4/Cyclin D3, 8.1 nM. The Ratio IC50 at Histone deacetylase 1 [2] lay in the range of 10 to 100.

On to `O=C(CCCCCCC(=O)Nc1ccc(Nc2ncc3ncn(C4CCCC4)c3n2)cc1)NO`, for which the figures for the IC50 at Histone deacetylase 1 [1] and at CDK4/Cyclin D3 were 2.6 nM and more than 5000 nM, respectively. For the same compound, the Ratio IC50 on Histone deacetylase 1 [2] fell in the range of 10 to 100.
